Experimental data published in US20250049962A1, “NEAR-INFRARED FLUORESCENT CONTRAST BIOIMAGING AGENTS FOR IMAGING OF SENTINEL LYMPH NODES” (Curadel Surgical Innovations, Inc., priority 2021, published 2025).
Entries after “also recorded” stand apart in the source; their conditions may differ.

Key:
[1] = SLN imaging after footpad injection, NIR fluorescence imaging; format: in vivo, CD-1 mice
Text: Neae Infrared fluorescence imaging can be achieved using a number of commercially available imaging systes. For example, the dual-NIR channel FLARE imaging system has been described in detail. It provides simultaneous illumination with white light (400-650 nm) at 40,000 lx, 660 nm NIR Channel 1 excitation at 4 mW/cm^2 and […] NIR Channel 2 excitation at 10 mW/cm^2. Color and two independent NIR fluorescence emission images (≈700 nm for Channel 1 and ≈800 nm for Channel 2) were acquired simultaneously with custom software at rates up to 15 Hz over a 15 cm diameter field of view. NIR fluorescence from Channel 1 was pseudo-colored in red and NIR fluorescence from Channel 2 was pseudo-colored in lime green prior to merger with the color video image. The imaging system was positioned at a distance of 18 inches from the surgical field.
(§1) All foot pad injections and intravenous injections were 10 μL of each of these 500 μM concentrations for a total of 5 nmol per injection.
Sentinel lymph nodes were observed a near infrared (NIR) imaging system.
The target tissue was exposed and the SLN was imaged for NIR fluorescence using dual channels [Channel 1 (700 nm) and Channel 2 (800 nm)] of a NIR imaging system.

Solubility measurement = format: physicochemical
Protocol: However, the contrast agent is soluble in mixtures of water and ethanol. […] After mixing for an extended period, the solutions were filtered using a 0.45 um spin filter. The solvent of known volumes was then removed by evaporation and solubility was determined by measuring the remaining solids in the pre-measured evaporating flask.

[2] = Biodistribution and clearance 4 hours after intravenous injection; format: in vivo, CD-1 mice; settings: 4 hours post iv injection
Protocol: as §1
In order to show the biodistribution benefits of ICB, the same procedure was used using intravenous injections. After 4 hours animals were sacrificed, and the target tissue and other major organs including heart, lung, liver, spleen, pancreas, kidneys, duodenum, intestine, and muscle were resected to quantify biodistribution and clearance. A biodistribution analysis of all three dyes at 4 hours post iv injection.

[3] = Lymph flow imaging after intradermal peri-tail injection; format: in vivo, CD-1 mice; settings: until 15 minutes post injection, ICG at 800 nm, FIG. 4
Protocol: The same procedure was used using intradermal peri-tail injections to visual lymph flow until 15 minutes post injection at which point the animal was sacrificed. […] The arrow with the circle indicates the first-tier node.

liver (hepatic) clearance observed by the imaging ([1]; footpad injection, CD-1 mice)	solubility (Solubility measurement; D5W)	solubility (Solubility measurement; water)	route of clearance [2]	signal in the kidneys ([2]; 5 nmol)	signal in the large intestine ([2]; 5 nmol)	signal in the stomach ([2]; 5 nmol)	Molecule	leakage / flow through from sentinel lymph nodes ([1]; 5 nmol footpad injection, CD-1 mice)	first-tier/second-tier signal-to-background ratio ([1]; 15 minutes post-injection, 5 nmol footpad injection, CD-1 mice)	brightness of visualization ([1]; compared to SLN700, 700 nm)	LN skipping [3]
Visible liver (hepatic) clearance	at least 10 mg/mL	at least 10 mg/mL	completely cleared by the liver	Minimal signal	enhanced signal	to lesser extent	4-[(2Z)-2-[(2E,4E)-5-[3,3-dimethyl-1-(4-sulfobutyl) indol-1-ium-2-yl]penta-2,4-dienylidene]-3,3-dimethylindol-1-yl]butane-1-sulfonic acid [ICB]	considerably less leakage over ICG or SLN700; also recorded: little to no significant flow through	5.4±1.6	brighter	
					enhanced signal	to lesser extent	CC1(C)C(/C=C/C=C/C=C/C=C2\N(CCCCS(=O)(=O)O)c3ccc4ccccc4c3C2(C)C)=[N+](CCCCS(=O)(=O)[O-])c2ccc3ccccc3c21 [ICG, indocyanine green, reference compound]				significant LN skipping
